# Assay results reported in patent US11897925B2, “Treatment of homologous recombination deficient cancers” (Sinai Health System, priority 2020, dated 2024).
# Key:
# DLD1 BRCA2−/− cells = assay: Micronuclei (MNi) assay after B6L induction; assay type: cell-based, human; details: BRCA2−/− cells held in G2 with RO-3306 prior to release in mitosis
# Protocol: For TOPBP1 rescue experiments, DLD1 wild-type and BRCA2^−/− cells stably expressing 2×HA-TOPBP1 were generated by viral transduction and selection with blasticidin (7.5 μg/mL for parental cells, 10 μg/mL for BRCA2^−/− cells). 3 days after transduction with sgRNA viral particles (as described in the clonogenic survival assays), cells were seeded in a 96-well plate (1,500 for wild-type cells; 4,000 for BRCA2^−/− cells) and cultured for 4 additional days. For inducible B6L expression experiments, DLD1 and MDA-MB-436 cells were seeded in a 96-well plate (1,500 for DLD1 wild-type cells; 4,000 for DLD1 BRCA2^−/− cells; 14,000 for MDA-MB-436) and cultured for up to 4 days in the presence of Aqua-Shield-1.
# For detection of micronuclei, cells were fixed with 2% PFA, washed 3 times with PBS, permeabilized with 0.3% Triton X-100 in PBS for 5 min, washed 3 times with PBS, incubated for 1 h with PBS+DAPI (0.5 μg/mL). Alternatively, cells were stained for immunofluorescence (CENPA detection). After the last wash with PBS, images were acquired on an IN Cell Analyzer 6000 automated microscope (GE Life Sciences) with a 40× objective. Micronuclei were automatically detected and counted using the Columbus analysis tool (PerkinElmer).
# U2OS cells = assay: CIP2A/TOPBP1 mitotic foci and filaments after aphidicolin; assay type: cell-based, human; details: 400 nM aphidicolin, 16 h; wild type and MDC1−/− U2OS; mostly independent of MDC1
# Protocol: For the experiments relating to the mitotic structures labelled by CIP2A and TOPBP1, U2OS wild-type and MDC1^-/- cell lines were seeded on coverslips and either treated with 400 nM aphidicolin for 16 h (overnight) or left untreated. In order to perform immunofluorescence, cells were quickly washed once with cold PBS and then fixed with ice-cold methanol for 10 min on ice. Methanol was discarded and cells were washed two times with PBS before incubation with blocking buffer (10% FBS in PBS) for at least 1 h. Incubation with primary antibodies diluted in 5% FBS-PBS was performed overnight at 4° C. in a humidity chamber. Coverslips were then washed 3×10 min with blocking buffer and incubated with AlexaFluor-conjugated secondary antibodies for 1 h at room temperature in the dark. After washing 3×10 min with PBS, coverslips were mounted on glass microscopy slides (Thermo Scientific, 630-1985, dimensions […]×[…] mm) with […] mounting medium containing 0.5 μg/mL (DAPI) (Vector Laboratories, H-1200). Confocal images were acquired using a Leica SP8 inverse confocal laser scanning microscope with a 63×, 1.4-NA Plan-Apochromat oil-immersion objective. […] Images were recorded using optimal pixel size based on Nyquist criterion. […] Quantification of the foci was performed manually based on maximum intensity projections. […]
smiles,measurement,setting,value
O=C1NC(=NCc2cccs2)S/C1=C\c1ccc2ncccc2c1 [RO-3306],B6L-induced micronucleation after holding cells in G2,DLD1 BRCA2−/− cells,completely suppressed B6L-induced micronucleation
C[C@@]1(CO)[C@H](O)CC[C@@]2(C)[C@H]1CC[C@H]1C[C@@H]3C[C@@]12CC[C@]3(O)CO [aphidicolin],frequency of CIP2A-TOPBP1 foci and filaments in mitotic cells,U2OS cells,increased
